# Patent US6355640B1, “Pyrazolopyridine adenosine antagonists” (Fujisawa Pharmaceutical Co., Ltd., priority 1993, dated 2002)
row,melting point [°C],Compound
1,238 to 240,"O=c1ccc(-c2c(-c3ccccc3)nn3ccccc23)nn1C1CCCCC1=NO (stereo not shown) (hydrate or solvate) [Example 89, 3-[2-(2-Hydroxyiminocyclohexyl)-3-oxo-2,3-dihydropyridazin-6-yl]-2-phenylpyrazolo[1,5-a]pyridine]"
2,166 to 168,"CCOC(=O)C=C1CCC(n2nc(-c3c(-c4ccccc4)nn4ccccc34)ccc2=O)CC1 (stereo not shown) [Example 94, 3-[2-(4-ethoxycarbonylmethylenecyclohexyl)-3-oxo-2,3-dihydropyridazin-6-yl]-2-phenylpyrazolo[1,5-a]-pyridine]"
3,156 to 158,"CC1CC(C)(C)N=C(/C=C2\CCCCC2n2nc(-c3c(-c4ccccc4)nn4ccccc34)ccc2=O)O1 (stereo not shown) [Example 97(1), (E)-3-[2-{2-(4,4,6-Trimethyl-5,6-dihydro-4H-1,3-oxazin-2-yl)methylenecyclohexyl}-3-oxo-2,3-dihydropyridazin-6-yl]-2-phenylpyrazolo[1,5-a]pyridine]"
4,184 to 185,"O=C(CC1=C(n2nc(-c3c(-c4ccccc4)nn4ccccc34)ccc2=O)CCCC1)N1CCCCC1 [Example 85, 3-[2-{2-(Piperidinocarbonyl)methyl-1-cyclohexenyl}-3-oxo-2,3-dihydropyridazin-6-yl]-2-phenylpyrazolo[1,5-a]-pyridine]"
5,163,"COc1ccccc1-n1nc(-c2c(-c3ccccc3)nn3ccccc23)ccc1=O [Example 101, 3-[2-(2-Methoxyphenyl)-3-oxo-2,3-dihydropyridazin-6-yl]-2-phenylpyrazolo[1,5-a]pyridine]"
6,170,"O=c1ccc(-c2c(-c3ccccc3)nn3ccccc23)nn1-c1ccccc1 [Example 99, 3-(2-phenyl-3-oxo-2,3-dihydropyridazin-6-yl)-2-phenylpyrazolo[1,5-a]pyridine]"
7,164,"O=C(O)C1CCCCC1n1nc(-c2c(-c3ccccc3)nn3ccccc23)ccc1=O (stereo not shown) [Example 109, 3-[2-(2-carboxycyclohexyl)-3-oxo-2,3-dihydropyridazin-6-yl]-2-phenylpyrazolo[1,5-a]pyridine]"
8,145 to 150,"O=C(O)CN1CCCC(n2nc(-c3c(-c4ccccc4)nn4ccccc34)ccc2=O)C1=O (stereo not shown) [Example 117, 3-[2-(1-Carboxymethyl-2-oxopiperidin-3-yl)-3-oxo-2,3-dihydropyridazin-6-yl]-2-phenylpyrazolo[1,5-a]pyridine]"
9,175 to 176,"COC(=O)COc1cccc2c1CCC(n1nc(-c3c(-c4ccccc4)nn4ccccc34)ccc1=O)C2=O (stereo not shown) [Example 118, 3-[2-(1-Methoxycarbonylmethoxy-5-oxo-5,6,7,8-tetrahydro-6-naphthyl)-3-oxo-2,3-dihydropyridazin-6-yl]-2-phenylpyrazolo[1,5-a]pyridine]"
10,225 to 227,"O=C(O)COc1cccc2c1CCC(n1nc(-c3c(-c4ccccc4)nn4ccccc34)ccc1=O)C2=O (stereo not shown) [Example 119, 3-[2-(1-Carboxymethoxy-5-oxo-5,6,7,8-tetrahydro-6-naphthyl)-3-oxo-2,3-dihydropyridazin-6-yl]-2-phenylpyrazolo[1,5-a]pyridine]"
11,80 to 81,"CN(C)C(=O)CC1=C(n2nc(-c3c(-c4ccccc4)nn4ccccc34)ccc2=O)CCCC1 [Example 71, 3-[2-{2-(N,N-Dimethylcarbamoyl)methyl-1-cyclohexenyl}-3-oxo-2,3-dihydropyridazin-6-yl]-2-phenylpyrazolo[1,5-a]pyridine]"

# More lines, now with the values behind:
row,Compound,melting point [°C]
1,"O=C(O)[C@@H]1CC[C@H](n2nc(-c3c(-c4ccccc4)nn4ccccc34)ccc2=O)C(=O)C1 (relative stereo) [Example 13, cis-3-[2-(4-carboxy-2-oxocyclohexyl)-3-oxo-2,3-dihydropyridazin-6-yl]-2-phenylpyrazolo[1,5-a]pyridine]",186 to 188
2,"O=C(O)CC1=C(n2nc(-c3c(-c4ccccc4)nn4ccccc34)ccc2=O)CCCCC1 (hydrate or solvate) [Example 19, 3-[2-(2-carboxymethyl-1-cycloheptenyl)-3-oxo-2,3-dihydropyridazin-6-yl]-2-phenylpyrazolo[1,5-a]-pyridine]",171 to 172
3,"CN(CC(=O)O)C(=O)CC1=C(n2nc(-c3c(-c4ccccc4)nn4ccccc34)ccc2=O)CCCC1 [Example 43, 3-[2-{2-(N-carboxymethyl-N-methylcarbamoyl)methyl-1-cyclohexenyl}-3-oxo-2,3-dihydropyridazin-6-yl]-2-phenylpyrazolo[1,5-a]pyridine]",135 to 138
4,"COC(=O)[C@@H]1CC[C@H](n2nc(-c3c(-c4ccccc4)nn4ccccc34)ccc2=O)C(=O)C1 (relative stereo) [Example 10, cis-3-[2-(4-Methoxycarbonyl-2-oxocyclohexyl)-3-oxo-2,3-dihydropyridazin-6-yl]-2-phenylpyrazolo[1,5-a]pyridine]",164 to 165
5,"O=c1ccc(-c2c(-c3ccccc3)nn3ccccc23)nn1[C@@H]1CCCC[C@@H]1O (relative stereo) [Example 4, cis-3-[2-(2-hydroxycyclohexyl)-3-oxo-2,3-dihydropyridazin-6-yl]-2-phenylpyrazolo[1,5-a]pyridine]",195 to 197
6,"CCCn1c(-n2nc(-c3c(-c4ccccc4)nn4ccccc34)ccc2=O)cc(=O)n(CCC)c1=O [Example 27, 3-[2-(1,3-Dipropyl-2,4-dioxo-1,2,3,4-tetrahydropyrimidin-6-yl)-3-oxo-2,3-dihydropyridazin-6-yl]-2-phenylpyrazolo[1,5-a]pyridine]",155.3
7,CN1CCN(C(=O)CC2=C(n3nc(-c4c(-c5ccccc5)nn5ccccc45)ccc3=O)CCCC2)CC1.Cl (hydrate or solvate),188 to 191
8,"O=c1ccc(-c2c(-c3ccccc3)nn3ccccc23)nn1[C@H]1CC[C@@H](C(=O)O)CC1 [Example 47(1), cis-3-[2-(4-Carboxycyclohexyl)-3-oxo-2,3-dihydropyridazin-6-yl]-2-phenylpyrazolo[1,5-a]pyridine]",296 to 298
9,"CCOC(=O)CN(C)C(=O)CC1=C(n2nc(-c3c(-c4ccccc4)nn4ccccc34)ccc2=O)CCCC1 [Example 68, 3-[2-{2-(N-ethoxycarbonylmethyl-N-methylcarbamoyl)methyl-1-cyclohexenyl}-3-oxo-2,3-dihydropyridazin-6-yl]-2-phenylpyrazolo[1,5-a]pyridine]",56 to 60
10,"COc1ccc2c(c1)CC[C@@H](O)[C@@H]2n1nc(-c2c(-c3ccccc3)nn3ccccc23)ccc1=O (relative stereo) [Example 30, trans-3-[2-(6-Hydroxy-2-methoxy-5,6,7,8-tetrahydro-5-naphthyl)-3-oxo-2,3-dihydropyridazin-6-yl]-2-phenylpyrazolo[1,5-a]pyridine]",146 to 150
11,"O=C(O)[C@H]1CCC(=O)[C@@H](n2nc(-c3c(-c4ccccc4)nn4ccccc34)ccc2=O)C1 (relative stereo) (hydrate or solvate) [Example 17, cis-3-[2-(5-Carboxy-2-oxocyclohexyl)-3-oxo-2,3-dihydropyridazin-6-yl]-2-phenylpyrazolo[1,5-a]pyridine]",155 to 165
12,"O=C(O)C[C@H]1CC[C@H](n2nc(-c3c(-c4ccccc4)nn4ccccc34)ccc2=O)C1 (relative stereo) [Example 40, trans-3-[2-(3-Carboxymethylcyclopentyl)-3-oxo-2,3-dihydropyridazin-6-yl]-2-phenylpyrazolo[1,5-a]pyridine]",212 to 213
13,"CCOC(=O)C[C@@H]1CCCC[C@H]1n1nc(-c2c(-c3ccccc3)nn3ccccc23)ccc1=O (relative stereo) [Example 33(1), trans-3-[2-(2-Ethoxycarbonylmethylcyclohexyl)-3-oxo-2,3-dihydropyridazin-6-yl]-2-phenylpyrazolo[1,5-a]-pyridine]",172 to 173
14,"O=C(CCC1=C(n2nc(-c3c(-c4ccccc4)nn4ccccc34)ccc2=O)CCCC1)OCc1ccccc1 [Example 66, 3-[2-{2-(2-benzyloxycarbonylethyl)-1-cyclohexenyl}-3-oxo-2,3-dihydropyridazin-6-yl]-2-phenylpyrazolo[1,5-a]pyridine]",111 to 113
15,"CCOC(=O)[C@H]1CCC(=O)[C@@H](n2nc(-c3c(-c4ccccc4)nn4ccccc34)ccc2=O)C1 (relative stereo) [Example 16, cis-3-[2-(5-Ethoxycarbonyl-2-oxocyclohexyl)-3-oxo-2,3-dihydropyridazin-6-yl]-2-phenylpyrazolo[1,5-a]pyridine]",160 to 162
16,"O=c1ccc(-c2c(-c3ccccc3)nn3ccccc23)nn1C1CCCCC1 [Example 1, 3-(2-cyclohexyl-3-oxo-2,3-dihydropyridazin-6-yl)-2-phenylpyrazolo[1,5-a]pyridine]",115 to 117
17,"CC(C)(C)OC(=O)/C=C1/CCCCC1n1nc(-c2c(-c3ccccc3)nn3ccccc23)ccc1=O (stereo not shown) [Example 98, (Z)-3-[2-{2-(tert-butoxycarbonyl-methylene)cyclohexyl}-3-oxo-2,3-dihydropyridazin-6-yl]-2-phenylpyrazolo[1,5-a]pyridine]",171 to 172
18,"O=c1ccc(-c2c(-c3ccccc3)nn3ccccc23)nn1[C@@H]1CCCC[C@H]1O (relative stereo) [Example 5, trans-3-[2-(2-hydroxycyclohexyl)-3-oxo-2,3-dihydropyridazin-6-yl]-2-phenylpyrazolo[1,5-a]-pyridine]",229 to 230
19,"CCCn1c(-n2nc(-c3c(-c4ccccc4)nn4ccccc34)ccc2=O)cc(=O)n(CC(=O)OC)c1=O [Example 29, 3-[2-(2,4-Dioxo-3-methoxycarbonylmethyl-1-propyl-1,2,3,4-tetrahydropyrimidin-6-yl)-3-oxo-2,3-dihydropyridazin-6-yl]-2-phenylpyrazolo[1,5-a]pyridine]",191 to 195
20,"O=C(O)CCCNC(=O)CC1=C(n2nc(-c3c(-c4ccccc4)nn4ccccc34)ccc2=O)CCCC1 [Example 46, 3-[2-(2-(N-(3-Carboxypropyl)carbamoyl)methyl-1-cyclohexenyl)-3-oxo-2,3-dihydropyridazin-6-yl]-2-phenylpyrazolo[1,5-a]pyridine]",92.5 to 93
